Test results taken from publication PMC6113202.

Experiments:
[1] = test system: p21 (DNA, duplex) TAGAGGAAGAAGACTGGGCATGTCTGGGCA/TGCCCAGACATGCCCAGTCTTCTTCCTCTA; assay: fluorescent intercalator displacement by p53; settings: KCl 150 mM in p53 buffer (80% v/v); NaCl 50 mM in DNA buffer (15% v/v); 1 μM DNA, 10 μM dye; dye displaced by p53; NaPi pH 7.2, DTT, Tris-HCl, 5% DMSO
[2] = test system: hairpin p21 RE (DNA, hairpin) GAAGAAGACTGGGCATGTCTAAAAAAGACATGCCCAGTCTTCTTC; assay: fluorescence titration; settings: KCl 150 mM in p53 buffer (80% v/v), NaCl 50 mM in DNA buffer (15% v/v), per base pair, approximate, NaPi pH 7.2, DTT, Tris-HCl, room temperature, dye 100 nM
[3] = test system: RGC (DNA, duplex) CACATGCCTTGCCTGGACTTGCCT/AGGCAAGTCCAGGCAAGGCATGTG; assay: fluorescent intercalator displacement by p53; settings: KCl 150 mM in p53 buffer (80% v/v); NaCl 50 mM in DNA buffer (15% v/v); 1 μM DNA, 10 μM dye; dye displaced by p53; NaPi pH 7.2, DTT, Tris-HCl, 5% DMSO
[4] = test system: Scram (DNA, duplex) GTCGTTCTGATCCAGGTGATGTAGTCGACG/CGTCGACTACATCACCTGGATCAGAACGAC; assay: fluorescence turn-on; settings: KCl 150 mM in p53 buffer (80% v/v); NaCl 50 mM in DNA buffer (15% v/v); NaPi pH 7.2, DTT, Tris-HCl, 5% DMSO; room temperature; dye 100 nM
[5] = test system: pDINP1 (DNA, duplex) TTATAGAACTTGGGGGAACATGTTTACCAA/TTGGTAAACATGTTCCCCCAAGTTCTATAA; assay: fluorescence turn-on heat map; settings: KCl 150 mM in p53 buffer (80% v/v); NaCl 50 mM in DNA buffer (15% v/v); 4 μM dye, 250 nM DNA; NaPi pH 7.2, DTT, Tris-HCl, 5% DMSO; room temperature
[6] = test system: IGF-BP3 (DNA, duplex) CTAGAAAACAAGCCACCAACATGCTTGCATG/CATGCAAGCATGTTGGTGGCTTGTTTTCTAG; assay: fluorescence turn-on heat map; settings: KCl 150 mM in p53 buffer (80% v/v); NaCl 50 mM in DNA buffer (15% v/v); 4 μM dye, 250 nM DNA; NaPi pH 7.2, DTT, Tris-HCl, 5% DMSO; room temperature
p53-WT [7] = molecular target: T1, p53-WT (UniProt P04637 94-360); assay: fluorescent intercalator displacement; AO-R; p53 concentration-dependent; 1 uM DNA, 10 uM dye; 5% DMSO, 80% p53 buffer (25 mM NaPi pH 7.2, 150 mM KCl, 4 mM DTT), 15% DNA buffer (10 mM Tris-HCl pH 8.0, 50 mM NaCl); room temperature (stated for rotor-DNA mixtures); settings: protein: recombinant; tags: N-terminal His6; chain copies: 4; blunt
p53-WT [8] = molecular target: T1, p53-WT; assay: fluorescent intercalator displacement; AO-R; almost no displacement; 1 uM DNA, 10 uM dye; 5% DMSO, 80% p53 buffer (25 mM NaPi pH 7.2, 150 mM KCl, 4 mM DTT), 15% DNA buffer (10 mM Tris-HCl pH 8.0, 50 mM NaCl); room temperature (stated for rotor-DNA mixtures); settings: protein: recombinant; tags: N-terminal His6; chain copies: 4; blunt
p53-WT [9] = molecular target: T1, p53-WT; assay: fluorescent intercalator displacement; AO-R; strongest displacement of panel; 1 uM DNA, 10 uM dye; 5% DMSO, 80% p53 buffer (25 mM NaPi pH 7.2, 150 mM KCl, 4 mM DTT), 15% DNA buffer (10 mM Tris-HCl pH 8.0, 50 mM NaCl); room temperature (stated for rotor-DNA mixtures); settings: protein: recombinant; tags: N-terminal His6; chain copies: 4; blunt

T1 sequence (P04637 94-360): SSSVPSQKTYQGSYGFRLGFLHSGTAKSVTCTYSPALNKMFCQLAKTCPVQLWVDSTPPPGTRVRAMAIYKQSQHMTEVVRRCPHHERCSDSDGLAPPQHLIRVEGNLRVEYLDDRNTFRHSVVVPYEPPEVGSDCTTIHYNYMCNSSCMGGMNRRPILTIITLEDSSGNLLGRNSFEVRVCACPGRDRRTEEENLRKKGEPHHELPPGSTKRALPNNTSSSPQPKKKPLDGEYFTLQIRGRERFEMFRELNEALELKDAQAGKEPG

In the case of `CN(C)c1ccc2cc3ccc(N(C)C)c(/C=C(\C#N)C(=O)O)c3nc2c1`, the binding [1] is reported as “yes”, the Kd [2] is reported as 4.8 ± 0.8 µM and the binding [3] is reported as “yes”. For the same molecule, the binding [4] was “yes”.

For `CN1C(=Cc2cc[n+](C)c3ccccc23)Sc2ccccc21`, the binding [4] was “yes”.

For `CN(C)c1ccc2cc3ccc(N(C)C)cc3nc2c1`, the Kd [2] was 12.5 ± 1.0 µM and the binding [4] was “yes”.

For `CC[n+]1c(-c2ccccc2)c2cc(N)ccc2c2ccc(N)cc21`, the binding [4] was “yes”.

In the case of `CN1C(=Cc2cc[n+](CCCN)c3ccccc23)Sc2ccccc21`, the binding [4] is reported as “yes”.

For `C[n+]1ccc(/C=C/c2ccc(-n3c4ccc(/C=C/c5cc[n+](C)cc5)cc4c4cc(/C=C/c5cc[n+](C)cc5)ccc43)cc2)cc1`, the binding [5] was “yes” and the binding [6] was “yes”.

With `C[n+]1ccc(/C=C/c2ccc3c(c2)c2cc(/C=C/c4cc[n+](C)cc4)ccc2n3-c2ccccc2)cc1` the binding [5] was “yes”, the binding [4] was “yes” and the binding [6] was “yes”.

B1: p21 RE (dsDNA)
DNA 1: TAGAGGAAGAAGACTGGGCATGTCTGGGCA
DNA 2: TGCCCAGACATGCCCAGTCTTCTTCCTCTA
B1: binds (p53-WT [7]).

B2: Scram (dsDNA)
DNA 1: GTCGTTCTGATCCAGGTGATGTAGTCGACG
DNA 2: CGTCGACTACATCACCTGGATCAGAACGAC
B2: no binding (p53-WT [8]).

B3: Con-A (dsDNA)
DNA 1: GGGCATGTCCGGGCATGTCC
DNA 2: GGACATGCCCGGACATGCCC
B3: binds (p53-WT [9]).

B4: RGC RE (dsDNA)
DNA 1: CACATGCCTTGCCTGGACTTGCCT
DNA 2: AGGCAAGTCCAGGCAAGGCATGTG
B4: binds (p53-WT [7]).
